{"source": "ChEMBL document CHEMBL4028808", "about": "“Design and synthesis of selective CDK8/19 dual inhibitors: Discovery of 4,5-dihydrothieno[3',4':3,4]benzo[1,2-d]isothiazole derivatives” (Bioorg Med Chem, 2017)", "key": {"[1]": {"biological_target": "Cyclin-C/Cyclin-dependent kinase 19 (Homo sapiens) (UniProt Q9BWU1+P24863)", "conditions": "1 uM", "description": "Inhibition of kinase tracer-236 binding to GST-tagged CDK19/CyclinC (unknown origin) at 1 uM after 60 mins by TR-FRET assay relative to control"}, "[2]": {"biological_target": "Focal adhesion kinase 1 (Homo sapiens) (UniProt Q05397)", "assay": "Inhibition of FAK (unknown origin) at <1 uM using biotinylated poly[Glu:Tyr] (4:1) as substrate pretreated for 5 mins followed by substrate addition measured after 20 mins by Alphascreen assay"}, "[3]": {"biological_target": "Serine/threonine-protein kinase PLK1 (Homo sapiens) (UniProt P53350)", "sequence (P53350 whole entry)": "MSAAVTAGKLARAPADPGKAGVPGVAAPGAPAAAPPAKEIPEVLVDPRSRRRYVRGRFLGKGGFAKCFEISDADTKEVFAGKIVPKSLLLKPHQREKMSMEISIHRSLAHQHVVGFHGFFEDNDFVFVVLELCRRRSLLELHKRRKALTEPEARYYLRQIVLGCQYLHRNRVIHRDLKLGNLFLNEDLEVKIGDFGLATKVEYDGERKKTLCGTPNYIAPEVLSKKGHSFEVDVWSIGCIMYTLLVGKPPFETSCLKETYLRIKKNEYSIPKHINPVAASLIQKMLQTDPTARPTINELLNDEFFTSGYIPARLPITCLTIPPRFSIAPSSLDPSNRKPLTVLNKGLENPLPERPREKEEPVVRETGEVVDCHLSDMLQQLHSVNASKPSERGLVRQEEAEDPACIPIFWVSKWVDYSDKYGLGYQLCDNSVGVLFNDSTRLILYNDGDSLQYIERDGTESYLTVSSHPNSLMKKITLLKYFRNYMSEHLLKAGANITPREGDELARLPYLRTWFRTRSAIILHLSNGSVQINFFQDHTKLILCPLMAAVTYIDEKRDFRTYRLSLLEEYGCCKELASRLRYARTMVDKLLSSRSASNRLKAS", "assay": "Inhibition of PLK1 (unknown origin) at 1 uM using alpha-casein as substrate preincubated for 5 mins followed by substrate addition measured after 60 mins in presence of [gamma33P]ATP by scintillation counter method relative to control"}, "[4]": {"biological_target": "MAP kinase-activated protein kinase 2 (Homo sapiens) (UniProt P49137)", "assay": "Inhibition of MAPKAPK2 (unknown origin) at <1 uM using KKLNRTLSVA-NH2 as substrate preincubated for 5 mins followed by substrate addition measured after 10 mins in presence of [gamma33P]ATP by scintillation counter method"}, "[5]": {"biological_target": "Tyrosine-protein kinase JAK1 (Homo sapiens) (UniProt P23458)", "assay": "Inhibition of JAK1 (unknown origin) at <1 uM using biotinylated poly[Glu:Tyr] (4:1) as substrate pretreated for 5 mins followed by substrate addition measured after 10 mins by Alphascreen assay"}, "[6]": {"biological_target": "Ephrin type-A receptor 5 (Homo sapiens) (UniProt P54756)", "sequence (P54756 whole entry)": "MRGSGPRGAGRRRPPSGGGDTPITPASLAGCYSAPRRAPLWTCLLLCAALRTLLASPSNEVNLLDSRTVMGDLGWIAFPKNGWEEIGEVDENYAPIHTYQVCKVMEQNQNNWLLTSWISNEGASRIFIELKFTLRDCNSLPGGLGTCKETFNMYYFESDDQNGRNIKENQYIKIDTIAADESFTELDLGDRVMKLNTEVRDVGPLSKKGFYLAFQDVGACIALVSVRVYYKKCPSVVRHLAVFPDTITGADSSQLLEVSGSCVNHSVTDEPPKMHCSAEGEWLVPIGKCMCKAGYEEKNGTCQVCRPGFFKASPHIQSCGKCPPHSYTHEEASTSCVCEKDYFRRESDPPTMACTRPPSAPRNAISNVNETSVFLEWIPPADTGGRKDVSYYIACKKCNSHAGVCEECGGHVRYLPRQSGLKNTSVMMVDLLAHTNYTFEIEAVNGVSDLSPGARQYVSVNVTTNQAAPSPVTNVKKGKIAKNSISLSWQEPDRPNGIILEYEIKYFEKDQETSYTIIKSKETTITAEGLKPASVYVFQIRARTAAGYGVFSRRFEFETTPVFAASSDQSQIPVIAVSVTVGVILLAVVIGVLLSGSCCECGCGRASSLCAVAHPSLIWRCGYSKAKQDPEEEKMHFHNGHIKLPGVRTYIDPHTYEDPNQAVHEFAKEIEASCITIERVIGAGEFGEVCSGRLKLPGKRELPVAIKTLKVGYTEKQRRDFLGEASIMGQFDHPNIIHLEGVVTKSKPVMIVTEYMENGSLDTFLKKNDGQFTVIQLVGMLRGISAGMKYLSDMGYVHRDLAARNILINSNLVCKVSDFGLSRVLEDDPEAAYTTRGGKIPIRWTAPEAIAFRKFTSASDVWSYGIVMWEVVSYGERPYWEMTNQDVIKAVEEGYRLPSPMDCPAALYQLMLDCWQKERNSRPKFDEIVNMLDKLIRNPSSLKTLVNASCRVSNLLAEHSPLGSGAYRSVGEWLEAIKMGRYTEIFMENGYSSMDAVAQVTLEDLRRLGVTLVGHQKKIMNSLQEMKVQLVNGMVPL", "assay": "Inhibition of EphA5 (unknown origin) at <1 uM using biotinylated poly[Glu:Tyr] (4:1) as substrate pretreated for 5 mins followed by substrate addition measured after 10 mins by Alphascreen assay"}, "[7]": {"biological_target": "Cyclin-dependent kinase 19 (Homo sapiens, UniProt Q9BWU1)", "conditions": "300 nM"}, "[8]": {"assay": "Volume of distribution at steady state in ICR mouse plasma at 0.1 mg/kg, iv administered as cassette dose by LC-MS/MS analysis", "format": "ADME, organism-based", "conditions": "read-out: Vdss"}, "[9]": {"biological_target": "Serine/threonine-protein kinase Chk1 (Homo sapiens) (UniProt O14757)", "sequence (O14757 whole entry)": "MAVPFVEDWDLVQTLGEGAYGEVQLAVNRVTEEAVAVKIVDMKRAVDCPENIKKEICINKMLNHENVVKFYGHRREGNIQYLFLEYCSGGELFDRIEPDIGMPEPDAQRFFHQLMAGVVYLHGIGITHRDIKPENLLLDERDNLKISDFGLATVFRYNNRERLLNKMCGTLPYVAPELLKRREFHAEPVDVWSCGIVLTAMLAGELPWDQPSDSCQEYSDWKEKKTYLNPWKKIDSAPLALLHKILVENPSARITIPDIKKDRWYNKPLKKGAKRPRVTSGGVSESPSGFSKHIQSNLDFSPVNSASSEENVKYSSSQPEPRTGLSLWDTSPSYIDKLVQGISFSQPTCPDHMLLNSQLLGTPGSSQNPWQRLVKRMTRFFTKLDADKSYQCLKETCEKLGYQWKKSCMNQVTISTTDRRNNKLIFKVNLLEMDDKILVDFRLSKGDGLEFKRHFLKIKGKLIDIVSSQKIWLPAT", "assay": "Inhibition of CHK1 (unknown origin) at <1 uM using CHKtide as substrate preincubated for 5 mins followed by substrate addition measured after 10 mins in presence of [gamma33P]ATP by scintillation counter method"}, "[10]": {"biological_target": "Protein kinase C theta type (Homo sapiens) (UniProt Q04759)", "sequence (Q04759 whole entry, looked up)": "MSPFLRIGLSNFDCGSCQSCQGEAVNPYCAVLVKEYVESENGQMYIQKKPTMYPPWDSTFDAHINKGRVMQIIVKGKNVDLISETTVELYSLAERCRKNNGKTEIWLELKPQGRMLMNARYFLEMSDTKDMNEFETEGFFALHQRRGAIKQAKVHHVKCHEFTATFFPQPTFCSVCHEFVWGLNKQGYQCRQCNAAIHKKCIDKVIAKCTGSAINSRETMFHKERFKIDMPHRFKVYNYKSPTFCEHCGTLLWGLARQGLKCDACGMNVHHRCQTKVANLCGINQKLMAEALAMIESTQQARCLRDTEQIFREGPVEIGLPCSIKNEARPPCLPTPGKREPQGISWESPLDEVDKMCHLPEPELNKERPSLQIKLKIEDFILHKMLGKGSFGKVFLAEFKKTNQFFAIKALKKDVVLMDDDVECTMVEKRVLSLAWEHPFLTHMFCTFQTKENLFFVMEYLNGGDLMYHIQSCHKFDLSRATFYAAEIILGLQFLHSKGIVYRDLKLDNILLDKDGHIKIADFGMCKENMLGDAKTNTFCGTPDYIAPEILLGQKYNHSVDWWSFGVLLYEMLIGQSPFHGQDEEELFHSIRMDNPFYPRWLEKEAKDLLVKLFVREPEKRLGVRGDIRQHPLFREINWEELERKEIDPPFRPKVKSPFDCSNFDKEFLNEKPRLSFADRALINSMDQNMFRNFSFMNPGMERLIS", "assay": "Inhibition of PKCtheta (unknown origin) at 1 uM using MBP as substrate preincubated for 5 mins followed by substrate addition measured after 60 mins in presence of [gamma33P]ATP by scintillation counter method relative to control"}, "RPMI-8226 [11]": {"tested_on": "RPMI-8226", "assay": "Antitumor activity against human RPMI8226 cells xenografted in C.B17/Icr scid/scid Jcl mouse assessed as tumor growth suppression at 2.5 mg/kg, po qd administered for 14 days measured post last dose relative to control", "format": "functional"}, "RPMI-8226 [12]": {"tested_on": "RPMI-8226", "assay": "Growth inhibition of human RPMI8226 cells after 196 hrs by CellTiter-Glo luminescence assay", "format": "functional", "conditions": "RPMI-8226, 196 h"}, "[13]": {"biological_target": "RAC-alpha serine/threonine-protein kinase (Homo sapiens) (UniProt P31749)", "sequence (P31749 whole entry)": "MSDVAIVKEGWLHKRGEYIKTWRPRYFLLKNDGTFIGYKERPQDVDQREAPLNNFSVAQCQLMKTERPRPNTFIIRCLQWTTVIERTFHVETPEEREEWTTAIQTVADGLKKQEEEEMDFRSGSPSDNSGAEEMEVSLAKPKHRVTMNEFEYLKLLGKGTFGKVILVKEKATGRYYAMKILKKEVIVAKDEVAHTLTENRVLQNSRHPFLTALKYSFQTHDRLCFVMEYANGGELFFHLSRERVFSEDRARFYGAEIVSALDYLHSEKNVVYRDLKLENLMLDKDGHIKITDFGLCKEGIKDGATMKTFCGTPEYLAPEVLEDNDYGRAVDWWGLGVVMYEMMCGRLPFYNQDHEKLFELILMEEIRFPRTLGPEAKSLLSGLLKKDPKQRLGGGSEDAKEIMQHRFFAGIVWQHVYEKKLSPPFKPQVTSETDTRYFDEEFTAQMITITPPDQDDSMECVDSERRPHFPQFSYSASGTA", "assay": "Inhibition of Akt1 (unknown origin) at <1 uM using AKT1 substrate pretreated for 5 mins followed by substrate addition after 20 mins in presence of [gamma33P]ATP by scintillation counter method"}, "[14]": {"assay": "Cmax in ICR mouse plasma at 1 mg/kg, po administered as cassette dose by LC-MS/MS analysis", "format": "ADME, organism-based", "parameters": "dose 1 mg/kg, route oral"}, "CDK8/Cyclin C": {"biological_target": "CDK8/Cyclin C (Homo sapiens, UniProt P49336)", "assay": "Inhibition of kinase tracer-236 binding to GST-tagged CDK8/CyclinC (unknown origin) after 60 mins by TR-FRET assay", "format": "protein-complex assay"}, "[15]": {"assay": "Intrinsic clearance in human liver microsomes at 1 umol/l after 15 to 30 mins in presence of NADPH by LC-MS/MS analysis", "format": "ADME, microsome", "conditions": "read-out: CLH"}, "[16]": {"biological_target": "Cyclin-dependent kinase 9 (Homo sapiens, UniProt P50750)", "sequence (P50750 whole entry)": "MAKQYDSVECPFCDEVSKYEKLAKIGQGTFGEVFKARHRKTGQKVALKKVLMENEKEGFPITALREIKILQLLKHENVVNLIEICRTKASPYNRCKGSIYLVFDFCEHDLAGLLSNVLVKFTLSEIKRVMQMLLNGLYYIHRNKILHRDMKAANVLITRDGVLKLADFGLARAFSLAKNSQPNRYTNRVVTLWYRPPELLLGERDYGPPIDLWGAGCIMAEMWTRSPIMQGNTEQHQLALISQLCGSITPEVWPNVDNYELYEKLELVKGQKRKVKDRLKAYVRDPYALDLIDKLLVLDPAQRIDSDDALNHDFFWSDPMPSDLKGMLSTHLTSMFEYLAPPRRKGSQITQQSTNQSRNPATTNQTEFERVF", "assay": "Inhibition of CDK9 (unknown origin) at 1 uM relative to control"}, "[17]": {"biological_target": "CDC7/DBF4 (Cell division cycle 7-related protein kinase/Activator of S phase kinase) (Homo sapiens) (UniProt Q9UBU7+O00311)", "sequence (O00311 whole entry, looked up)": "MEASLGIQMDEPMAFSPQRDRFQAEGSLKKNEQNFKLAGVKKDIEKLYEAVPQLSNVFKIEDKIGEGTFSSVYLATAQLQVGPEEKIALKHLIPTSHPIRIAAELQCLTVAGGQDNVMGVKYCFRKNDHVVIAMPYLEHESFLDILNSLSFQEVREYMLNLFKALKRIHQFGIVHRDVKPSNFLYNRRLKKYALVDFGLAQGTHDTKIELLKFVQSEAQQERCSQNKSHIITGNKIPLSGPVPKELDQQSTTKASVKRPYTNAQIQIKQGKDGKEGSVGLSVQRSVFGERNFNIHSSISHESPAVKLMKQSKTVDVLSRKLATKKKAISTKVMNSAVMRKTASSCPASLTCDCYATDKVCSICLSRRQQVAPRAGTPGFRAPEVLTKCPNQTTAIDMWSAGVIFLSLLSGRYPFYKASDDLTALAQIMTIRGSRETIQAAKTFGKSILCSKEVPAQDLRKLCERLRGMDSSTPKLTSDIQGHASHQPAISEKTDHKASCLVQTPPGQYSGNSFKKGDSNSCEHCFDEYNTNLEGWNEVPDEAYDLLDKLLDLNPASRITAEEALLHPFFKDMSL", "sequence (Q9UBU7 whole entry, looked up)": "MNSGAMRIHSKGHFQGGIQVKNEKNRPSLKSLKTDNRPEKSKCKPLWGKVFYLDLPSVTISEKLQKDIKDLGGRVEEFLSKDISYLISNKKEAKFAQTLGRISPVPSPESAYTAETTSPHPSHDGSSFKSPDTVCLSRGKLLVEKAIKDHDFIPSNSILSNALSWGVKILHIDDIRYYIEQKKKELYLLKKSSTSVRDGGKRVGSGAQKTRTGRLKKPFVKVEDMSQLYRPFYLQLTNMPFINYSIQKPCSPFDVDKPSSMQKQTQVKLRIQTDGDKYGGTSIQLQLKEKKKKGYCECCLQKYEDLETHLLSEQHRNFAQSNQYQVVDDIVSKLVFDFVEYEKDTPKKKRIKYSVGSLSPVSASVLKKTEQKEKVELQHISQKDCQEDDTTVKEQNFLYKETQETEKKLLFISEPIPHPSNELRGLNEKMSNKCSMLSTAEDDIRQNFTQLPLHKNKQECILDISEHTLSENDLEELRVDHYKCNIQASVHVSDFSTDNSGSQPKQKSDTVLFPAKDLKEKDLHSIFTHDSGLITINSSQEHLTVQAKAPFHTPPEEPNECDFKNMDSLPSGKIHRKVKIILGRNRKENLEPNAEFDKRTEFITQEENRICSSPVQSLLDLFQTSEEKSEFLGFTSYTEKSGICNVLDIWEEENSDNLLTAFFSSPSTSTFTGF", "assay": "Inhibition of CDC7/Dbf4 (unknown origin) at 1 uM using His-tagged MCM2 as substrate preincubated for 5 mins followed by substrate addition measured after 60 mins in presence of [gamma33P]ATP by scintillation counter method relative to control", "format": "protein-complex assay"}, "Ephrin type-A receptor 3": {"biological_target": "Ephrin type-A receptor 3 (Homo sapiens, UniProt P29320)", "assay": "Binding affinity to partial length wild-type human EPHA3 (D604 to K889 residues) expressed in bacterial expression system by kinome scan assay"}, "[18]": {"assay": "AUC (0 to 24 hrs) in ICR mouse plasma at 1 mg/kg, po administered as cassette dose by LC-MS/MS analysis", "format": "ADME, organism-based", "parameters": "dose 1 mg/kg, time < 24 hr, route oral"}, "[19]": {"biological_target": "Interleukin-1 receptor-associated kinase 1 (Homo sapiens) (UniProt P51617)", "assay": "Binding affinity to partial length wild-type human […] (R194 to S712 residues) expressed in mammalian expression system assessed as unbound drug level at 300 nM by KINOMEscan assay"}, "RPMI-8226 [20]": {"tested_on": "RPMI-8226", "assay": "Antitumor activity against human RPMI8226 cells xenografted in C.B17/Icr scid/scid Jcl mouse assessed as tumor growth suppression at 1.25 mg/kg, po bid administered for 14 days measured post last dose relative to control", "format": "functional"}, "[21]": {"biological_target": "T1, Homeodomain-interacting protein kinase 1 (Homo sapiens, UniProt Q86Z02)", "conditions": "300 nM"}, "MV4-11": {"tested_on": "MV4-11", "assay": "Growth inhibition of human MV411 cells after 196 hrs by CellTiter-Glo luminescence assay", "format": "functional", "conditions": "MV4-11, 196 h"}, "[22]": {"biological_target": "T1, Homeodomain-interacting protein kinase 1", "assay": "Binding affinity to partial length human HIPK1 (M146 to I555 residues) expressed in mammalian expression system by kinome scan assay"}, "[23]": {"assay": "Mean residence time in ICR mouse plasma at 0.1 mg/kg, iv administered as cassette dose by LC-MS/MS analysis", "format": "ADME, organism-based"}, "Homo sapiens": {"organism": "Homo sapiens", "assay": "Inhibition of PKA (unknown origin) at 1 uM using PKA peptide as substrate preincubated for 5 mins followed by substrate addition measured after 10 mins in presence of [gamma33P]ATP by scintillation counter method relative to control"}, "[24]": {"assay": "Aqueous solubility of the compound in DMSO at pH 6.8 by HPLC method", "format": "physicochemical"}, "[25]": {"biological_target": "Ephrin type-A receptor 3 (Homo sapiens) (UniProt P29320)", "assay": "Binding affinity to partial length wild-type human EPHA3 (D604 to K889 residues) expressed in bacterial expression system assessed as unbound drug level at 300 nM by KINOMEscan assay"}, "Mus musculus": {"tested_on": "Mus musculus", "assay": "In vivo inhibition of CDK8-mediated STAT1 phosphorylation in human RPMI8226 cells xenografted in C.B17/Icr scid/scid Jcl mouse at 1.25 mg/kg, po bid administered for 14 days measured 2 to 8 hrs post last dose", "format": "functional, organism-based"}}, "note": "Active and inactive are the calls of the source. No cut-off for these calls is given here."}
{"smiles": "COCCNC(=O)c1ccc(Oc2sc(C(N)=O)c3c2-c2sncc2CC3)cn1", "values": [{"measurement": "inhibition", "setting": "[1]", "value": 100, "unit": "%"}, {"measurement": "inhibition", "setting": "[2]", "value": "inactive"}, {"measurement": "inhibition", "setting": "[3]", "value": 4, "unit": "%"}, {"measurement": "inhibition", "setting": "[4]", "value": "inactive"}, {"measurement": "inhibition", "setting": "[5]", "value": "inactive"}, {"measurement": "inhibition", "setting": "[6]", "value": "inactive"}, {"measurement": "Fu", "setting": "[7]", "value": 0.046, "unit": "%"}, {"measurement": "Vd", "setting": "[8]", "value": 2.14, "unit": "L/kg"}, {"measurement": "inhibition", "setting": "[9]", "value": "inactive"}, {"measurement": "inhibition", "setting": "[10]", "value": 2, "unit": "%"}, {"measurement": "T/C", "setting": "RPMI-8226 [11]", "value": -1, "unit": "%"}, {"measurement": "GI50", "setting": "RPMI-8226 [12]", "value": 2.5, "unit": "nM"}, {"measurement": "inhibition", "setting": "[13]", "value": "inactive"}, {"measurement": "Cmax", "setting": "[14]", "value": 362, "unit": "ng/mL"}, {"measurement": "IC50", "setting": "CDK8/Cyclin C", "value": 0.46, "unit": "nM"}, {"measurement": "microsomal CLint at 1 µM", "setting": "[15]", "value": 21, "unit": "µL/min/mg"}, {"measurement": "inhibition", "setting": "[16]", "value": 83, "unit": "%"}, {"measurement": "inhibition", "setting": "[17]", "value": 33, "unit": "%"}, {"measurement": "Kd", "setting": "Ephrin type-A receptor 3", "value": "> 3000", "unit": "nM"}, {"measurement": "AUC(0-t) at 24 h", "setting": "[18]", "value": 891, "unit": "ng·h/mL"}, {"measurement": "Fu", "setting": "[19]", "value": 0.49, "unit": "%"}, {"measurement": "T/C", "setting": "RPMI-8226 [20]", "value": 27, "unit": "%"}, {"measurement": "Fu", "setting": "[21]", "value": 0.32, "unit": "%"}, {"measurement": "GI50", "setting": "MV4-11", "value": 1.6, "unit": "nM"}, {"measurement": "Kd", "setting": "[22]", "value": 160, "unit": "nM"}, {"measurement": "MRT", "setting": "[23]", "value": 1.93, "unit": "h"}, {"measurement": "inhibition", "setting": "Homo sapiens", "value": 1, "unit": "%"}, {"measurement": "solubility", "setting": "[24]", "value": 47, "unit": "µg/mL"}, {"measurement": "Fu", "setting": "[25]", "value": 0.43, "unit": "%"}, {"measurement": "inhibition", "setting": "Mus musculus", "value": "Active"}]}
